Laboratory results reported in patent publication US20250228832A1, “METHODS FOR TREATING DISORDERS AMELIORATED BY MUSCARINIC RECEPTOR ACTIVATION” (KARUNA THERAPEUTICS, INC., priority 2022, published 2025).
Where two headings read alike, the source gives them in different places.

Tests used:
human M5 receptor = target: T1, human M5 receptor (Homo sapiens, UniProt P08912); test: HTRF IP-One curve shift assay, M5; type: cell-based; details: M5
T1 construct: expressed in transfected cells
T1 sequence (P08912 1-532): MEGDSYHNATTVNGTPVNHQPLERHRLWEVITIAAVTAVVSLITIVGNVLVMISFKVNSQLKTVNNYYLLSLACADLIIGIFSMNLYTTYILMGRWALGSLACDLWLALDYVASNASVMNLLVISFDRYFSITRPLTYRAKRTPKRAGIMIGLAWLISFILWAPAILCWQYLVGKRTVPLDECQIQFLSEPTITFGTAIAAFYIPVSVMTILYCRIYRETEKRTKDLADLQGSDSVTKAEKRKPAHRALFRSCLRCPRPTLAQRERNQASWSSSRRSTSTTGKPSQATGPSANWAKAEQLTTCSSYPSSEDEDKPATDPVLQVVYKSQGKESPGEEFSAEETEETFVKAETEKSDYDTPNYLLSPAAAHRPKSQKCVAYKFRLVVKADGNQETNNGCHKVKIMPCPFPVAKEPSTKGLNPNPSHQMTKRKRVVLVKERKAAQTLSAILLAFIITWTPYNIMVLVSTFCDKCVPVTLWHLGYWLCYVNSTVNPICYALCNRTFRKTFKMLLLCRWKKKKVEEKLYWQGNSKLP
Experimental: (§1) HTRF IP-One assays were performed using frozen cell aliquots prepared from CHO-K1 cell lines stably expressing human M1, M3, or M5 receptors. Cells were frozen following typical cell freezing protocols. […] Dissociated cells were quenched in full media and collected by centrifugation at 290×g for 5 min. […] 1 mL aliquots of cells were dispensed into cryovial tubes and frozen in a controlled rate cryo-freezer container at −80° C. Cells were stored at −80° C. (or in liquid nitrogen if stored for at least six months) until the day of the assay.
(§2) On the day before the assay, frozen cells were rapidly thawed in a 37° C. water bath, brought up in 20 mL of full media, and collected via centrifugation at 290×g for 5 min. […] Next, […] of cells (10,000 cells/well) were dispensed into 384-well coming plates in triplicate. Cells were incubated overnight in a 37° C., 5% CO2 cell incubator.
(§3) Then, 2 μL of test compounds were added to the cells and incubated for 10 min at 37° C. in a 5% CO2 cell incubator. Next, 2 μL of diluted agonists serially diluted in assay buffer at 7× final assay concentration was added to assay plates. Finally, assay plates were incubated for two hours at 37° C. in a 5% CO2 cell incubator.
(§4) Six μL of IP-1 detection reagents (IP-One Gq HTRF kit, Cisbio Cat #62IPAPEJ) were dispensed to the cells. First, the plates were incubated for two hours at room temperature (IP-One detection reagents were made according to Cisbio protocol). Then, plates were read on an Envision plate reader following the Cisbio guidelines.
(§5) Raw data for all assays was transmitted directly from plate readers into the Beacon database for processing. All assay plates contained positive and negative control wells for data normalization and scaling. […] All control wells contained DMSO at a final assay concentration that matched the test compound wells.
(§6) Counts from the standard curve wells were used to generate a sigmoidal standard curve, which was used to transform the raw counts from each well on the plate (scaling control wells and compound wells) into a pmol/well IP1 value.

human M3 receptor = target: T2, human M3 receptor (Homo sapiens, UniProt P20309); test: HTRF IP-One curve shift assay, M3; type: cell-based
T2 construct: expressed in transfected cells
Experimental: as §1, §2, §3, §4, §5, §6

[1] = Emraclidine concentration 41.2 nM, read-out: Emax
[2] = Emraclidine concentration 123 nM, read-out: Emax
[3] = Emraclidine concentration 370 nM, read-out: Emax
[4] = Emraclidine concentration 1110 nM, read-out: Emax
[5] = Emraclidine concentration 3330 nM, read-out: Emax
[6] = Emraclidine concentration […], read-out: Emax
[7] = MK-4710 concentration 41.2 nM, read-out: Emax
[8] = MK-4710 concentration 123 nM, read-out: Emax
[9] = MK-4710 concentration 370 nM, read-out: Emax
[10] = MK-4710 concentration 1110 nM, read-out: Emax
[11] = MK-4710 concentration 3330 nM, read-out: Emax
[12] = MK-4710 concentration […], read-out: Emax
[13] = Emraclidine concentration 370 nM

T2 sequence (P20309 whole entry): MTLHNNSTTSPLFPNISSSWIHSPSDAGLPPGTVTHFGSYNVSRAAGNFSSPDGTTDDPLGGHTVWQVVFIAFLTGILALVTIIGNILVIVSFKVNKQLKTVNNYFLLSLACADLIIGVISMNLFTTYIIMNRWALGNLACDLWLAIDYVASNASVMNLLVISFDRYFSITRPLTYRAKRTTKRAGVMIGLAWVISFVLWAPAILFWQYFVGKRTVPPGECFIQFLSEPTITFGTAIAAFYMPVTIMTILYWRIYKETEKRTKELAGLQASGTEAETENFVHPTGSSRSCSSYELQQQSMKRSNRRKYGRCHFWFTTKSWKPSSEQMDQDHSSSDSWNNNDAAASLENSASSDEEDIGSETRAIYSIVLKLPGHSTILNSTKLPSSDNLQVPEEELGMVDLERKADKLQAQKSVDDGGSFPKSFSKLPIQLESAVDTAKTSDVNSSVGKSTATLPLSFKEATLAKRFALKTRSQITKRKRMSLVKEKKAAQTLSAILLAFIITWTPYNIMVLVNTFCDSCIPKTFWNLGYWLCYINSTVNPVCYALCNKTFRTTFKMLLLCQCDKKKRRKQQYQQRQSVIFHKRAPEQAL

`CC1OC2(CS1)CN1CCC2CC1` (stereo not shown) [cevimeline, Cevimeline, reference compound] showed an EC50 (human M5 receptor; Emraclidine concentration 0 nM) of 1.37 µM, an Emax (human M5 receptor; Emraclidine concentration 0 nM) of 90.54% and an Emax (human M5 receptor; [1]) of 92.7%. The Emax (human M5 receptor; [2]) was 93.5%, the Emax at […] (human M5 receptor; [3]) was 105% and the Emax (human M5 receptor; [4]) was 103%. The Emax (human M5 receptor; [5]) was 106%, the Emax at […] (human M5 receptor; [6]) was 102% and the “α (cooperativity, affinity shift)” value (human M5 receptor; M4 PAM Emraclidine) was 1.0. The “β (cooperativity, efficacy shift)” value (human M5 receptor; M4 PAM Emraclidine) was 0.5, the “τ (agonist pharmacology)” value (human M5 receptor; M4 PAM Emraclidine) was 0.1 and the “α (cooperativity, affinity shift)” value (human M5 receptor; M4 PAM MK-4710) was 1.0. The “β (cooperativity, efficacy shift)” value (human M5 receptor; M4 PAM MK-4710) was 1.4, the “τ (agonist pharmacology)” value (human M5 receptor; M4 PAM MK-4710) was 0.1 and the EC50 (human M5 receptor; MK-4710 concentration 0 nM) was 3.72 µM. It also gave an Emax (human M5 receptor; MK-4710 concentration 0 nM) of 70.31%, an Emax (human M5 receptor; [7]) of 95.2% and an Emax (human M5 receptor; [8]) of 88.2%. The Emax at […] (human M5 receptor; [9]) was 91.1%, the Emax (human M5 receptor; [10]) was 78.3% and the Emax (human M5 receptor; [11]) was 91.2%. For the same molecule, the Emax at […] (human M5 receptor; [12]) was 97.3%, the EC50 (human M3 receptor; Emraclidine concentration 0 nM) was 3.27 µM and the Emax (human M3 receptor; Emraclidine concentration 0 nM) was 97.9%. The Emax (human M3 receptor; [1]) was 96.7%, the Emax (human M3 receptor; [2]) was 83.8% and the Emax at […] (human M3 receptor; [13]) was 87.8%. The Emax (human M3 receptor; [4]) was 125%, the Emax (human M3 receptor; [5]) was 83.9% and the Emax at […] (human M3 receptor; Emraclidine concentration […]) was 77.3%. The “α (cooperativity, affinity shift)” value (human M3 receptor; M4 PAM Emraclidine) was 1.0, the “β (cooperativity, efficacy shift)” value (human M3 receptor; M4 PAM Emraclidine) was 1.1 and the “τ (agonist pharmacology)” value (human M3 receptor; M4 PAM Emraclidine) was 0.1. For the same molecule, the “α (cooperativity, affinity shift)” value (human M3 receptor; M4 PAM MK-4710) was 2.1, the “β (cooperativity, efficacy shift)” value (human M3 receptor; M4 PAM MK-4710) was 0.6 and the “τ (agonist pharmacology)” value (human M3 receptor; M4 PAM MK-4710) was 0.0. For the same molecule, the EC50 (human M3 receptor; MK-4710 concentration 0 nM) was 6.36 µM, the Emax (human M3 receptor; MK-4710 concentration 0 nM) was 118.7% and the EC50 (human M3 receptor; MK-4710 concentration 41.2 nM) was 7.6 µM. It also gave an Emax (human M3 receptor; [7]) of 151%, an EC50 (human M3 receptor; MK-4710 concentration 123 nM) of 4.88 µM and an Emax (human M3 receptor; [8]) of 137%. For the same molecule, the EC50 (human M3 receptor; MK-4710 concentration 370 nM) was 9.67 µM, the Emax at […] (human M3 receptor; MK-4710 concentration 370 nM) was 163% and the EC50 (human M3 receptor; MK-4710 concentration 1110 nM) was 11.2 µM. The Emax (human M3 receptor; [10]) was 150%, the EC50 (human M3 receptor; MK-4710 concentration 3330 nM) was 4.11 µM and the Emax (human M3 receptor; [11]) was 93.1%. For the same molecule, the EC50 (human M3 receptor; MK-4710 concentration […]) was 11.5 µM and the Emax at […] (human M3 receptor; MK-4710 concentration […]) was 159%.
With `CCCCCCCOc1nsnc1C1=CCCCN1C` [KTX-593, 3-(heptyloxy)-4-(1-methyl-1,4,5,6-tetrahydropyridin-2-yl)-1,2,5-thiadiazole] the EC50 (human M5 receptor; Emraclidine concentration 0 nM) was 0.403 µM, the Emax (human M5 receptor; Emraclidine concentration 0 nM) was 63.6% and the Emax (human M5 receptor; [1]) was 71.8%. The Emax (human M5 receptor; [2]) was 68.8%, the Emax at […] (human M5 receptor; [3]) was 67.4% and the Emax (human M5 receptor; [4]) was 66.9%. For the same molecule, the Emax (human M5 receptor; [5]) was 71.9%, the Emax at […] (human M5 receptor; [6]) was 67.1% and the “α (cooperativity, affinity shift)” value (human M5 receptor; M4 PAM Emraclidine) was 10.6. The “β (cooperativity, efficacy shift)” value (human M5 receptor; M4 PAM Emraclidine) was 1.1, the “τ (agonist pharmacology)” value (human M5 receptor; M4 PAM Emraclidine) was 0.0 and the “α (cooperativity, affinity shift)” value (human M5 receptor; M4 PAM MK-4710) was 1.4. The “β (cooperativity, efficacy shift)” value (human M5 receptor; M4 PAM MK-4710) was 0.8, the “τ (agonist pharmacology)” value (human M5 receptor; M4 PAM MK-4710) was 0.1 and the EC50 (human M5 receptor; MK-4710 concentration 0 nM) was 0.245 µM. It also gave an Emax (human M5 receptor; MK-4710 concentration 0 nM) of 81.82%, an Emax (human M5 receptor; [7]) of 78.3% and an Emax (human M5 receptor; [8]) of 78.8%. It also gave an Emax at […] (human M5 receptor; [9]) of 76.6%, an Emax (human M5 receptor; [10]) of 69.7% and an Emax (human M5 receptor; [11]) of 77.3%. For the same molecule, the Emax at […] (human M5 receptor; [12]) was 69.7%, the EC50 (human M3 receptor; Emraclidine concentration 0 nM) was 0.224 µM and the Emax (human M3 receptor; Emraclidine concentration 0 nM) was 63.5%. It also gave an Emax (human M3 receptor; [1]) of 63.9%, an Emax (human M3 receptor; [2]) of 68.2% and an Emax at […] (human M3 receptor; [13]) of 73.4%. For the same molecule, the Emax (human M3 receptor; [4]) was 64.6%, the Emax (human M3 receptor; [5]) was 73% and the Emax at […] (human M3 receptor; Emraclidine concentration […]) was 71.1%. The “α (cooperativity, affinity shift)” value (human M3 receptor; M4 PAM Emraclidine) was 7.6, the “β (cooperativity, efficacy shift)” value (human M3 receptor; M4 PAM Emraclidine) was 1.1 and the “τ (agonist pharmacology)” value (human M3 receptor; M4 PAM Emraclidine) was 0.0. The “α (cooperativity, affinity shift)” value (human M3 receptor; M4 PAM MK-4710) was 6.2, the “β (cooperativity, efficacy shift)” value (human M3 receptor; M4 PAM MK-4710) was 1.6 and the “τ (agonist pharmacology)” value (human M3 receptor; M4 PAM MK-4710) was 0.0. For the same molecule, the EC50 (human M3 receptor; MK-4710 concentration 0 nM) was 0.045 µM, the Emax (human M3 receptor; MK-4710 concentration 0 nM) was 80.8% and the Emax (human M3 receptor; [7]) was 75.4%. It also gave an Emax (human M3 receptor; [8]) of 66.6%, an Emax at […] (human M3 receptor; MK-4710 concentration 370 nM) of 76.7% and an Emax (human M3 receptor; [10]) of 74.3%. The Emax (human M3 receptor; [11]) was 86% and the Emax at […] (human M3 receptor; MK-4710 concentration […]) was 72.7%.
